The results in this text go back to PubChem BioAssay (NCI).

Among the test systems are HCC-2998 colon; SR leukemia; M14 melanoma; HL-60(TB) leukemia; MDA-MB-231 breast; NCI/ADR-RES ovarian; RPMI-8226 leukemia; OVCAR-8 ovarian; A498 renal; HOP-92 NSCLC.
What all share (assay): NCI anticancer screen, dose series, 48 h

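Each compound was tested at five concentrations against cells in 96-well plates for 48 hours. The concentration for full growth arrest is given as TGI.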

Regarding `COC(=O)C1CC2(CCC1=O)Cc1ccccc1C2=O` (stereo not drawn), the TGI in the assay on HCC-2998 colon, in the assay on SR leukemia, in the assay with M14 melanoma, in the assay on HL-60(TB) leukemia, with MDA-MB-231 breast and in the assay with NCI/ADR-RES ovarian was more than 100 µM in each case. Moreover, the TGI in the assay with RPMI-8226 leukemia and with OVCAR-8 ovarian was more than 100 µM throughout.

For `O=C(Cn1c2c(c3ccccc31)CCCC2)NC1CCCCC1`, the TGI in the assay on HCC-2998 colon, in the assay with M14 melanoma, with HL-60(TB) leukemia, in the assay with A498 renal, in the assay with NCI/ADR-RES ovarian and in the assay with RPMI-8226 leukemia was more than 100 µM each time. The same compound registered a TGI in the assay with OVCAR-8 ovarian of more than 100 µM.

For `CC1(CCC2C=CCC2)CCCNC1=S` (stereo not drawn), the TGI in the assay with HCC-2998 colon, in the assay with SR leukemia, with M14 melanoma, in the assay with HL-60(TB) leukemia, in the assay on A498 renal and in the assay on MDA-MB-231 breast was more than 10 µM each time. Further, the TGI in the assay with HOP-92 NSCLC, in the assay with RPMI-8226 leukemia and in the assay with OVCAR-8 ovarian was more than 10 µM in each case.

Regarding `COc1cc2cc(C(=O)N3CC(CCl)c4ccc(O)cc43)[nH]c2c(OC)c1OC` (stereo not drawn), the TGI is 0.00936 µM in the assay on HCC-2998 colon; more than 100 µM in the assay with SR leukemia; 0.12 µM with M14 melanoma; 0.0134 µM in the assay with MDA-MB-231 breast; 0.0253 µM in the assay on OVCAR-8 ovarian.

For the compound `O=c1cc(-c2ccccc2)[nH]c2cc(O)ccc12`, the TGI in the assay on HCC-2998 colon is 74.7 µM; in the assay with SR leukemia it was 62.9 µM; with M14 melanoma, 39 µM; with HL-60(TB) leukemia, 40.7 µM; in the assay on A498 renal, more than 100 µM; in the assay with HOP-92 NSCLC, 70.3 µM. Besides, the figures for the TGI with RPMI-8226 leukemia and in the assay on OVCAR-8 ovarian were 37.6 µM and more than 100 µM, respectively.

Turning to `CN(CCO)c1nc2c(c(=O)[nH]1)CCC2`, the TGI in the assay on HCC-2998 colon, in the assay on SR leukemia, in the assay on M14 melanoma, in the assay on HL-60(TB) leukemia, with HOP-92 NSCLC and in the assay on RPMI-8226 leukemia was more than 100 µM in each case. For the same compound, the TGI in the assay on OVCAR-8 ovarian was more than 100 µM.

With `COc1ccc2[nH]c3c(c2c1)CCn1c-3nc2ccccc2c1=O`, the TGI with HCC-2998 colon, in the assay on SR leukemia, in the assay on M14 melanoma, in the assay on HL-60(TB) leukemia, with MDA-MB-231 breast and with NCI/ADR-RES ovarian was more than 25 µM each time. The TGI with RPMI-8226 leukemia and in the assay on OVCAR-8 ovarian was more than 25 µM in each case.

Regarding `COc1cc2c(c(OC)c1OC)C(=O)[C@H](O)[C@H]2NC(N)=O`, the TGI with HCC-2998 colon, in the assay on M14 melanoma, in the assay on HL-60(TB) leukemia, with MDA-MB-231 breast, with NCI/ADR-RES ovarian and with RPMI-8226 leukemia was more than 100 µM throughout. In addition, the TGI in the assay on OVCAR-8 ovarian was more than 100 µM.

For `CNC(=O)N1CN(c2ccccc2)C2(CCN(CCCC(=O)c3ccc(F)cc3)CC2)C1=O`, the TGI in the assay on HCC-2998 colon was found to be 22.2 µM; in the assay on SR leukemia, 69.7 µM; in the assay on M14 melanoma it was 40.8 µM; in the assay on HL-60(TB) leukemia, 37.8 µM; with MDA-MB-231 breast it was 90.3 µM; with NCI/ADR-RES ovarian it was 36.6 µM. In addition, the TGI in the assay on RPMI-8226 leukemia is 34 µM; with OVCAR-8 ovarian it was more than 100 µM.

On to `COc1ccc(NC(=O)/C(=N\NC(=O)C[n+]2ccccc2)c2c(O)c3ccc(O)cc3oc2=O)c([N+](=O)[O-])c1`, for which the TGI in the assay on HCC-2998 colon, with M14 melanoma, with HL-60(TB) leukemia, in the assay on A498 renal, in the assay with MDA-MB-231 breast and in the assay with NCI/ADR-RES ovarian was more than 100 µM throughout. Further, the TGI with HOP-92 NSCLC, in the assay with RPMI-8226 leukemia and in the assay with OVCAR-8 ovarian was more than 100 µM in each case.

In the case of `O=c1oc2ccccc2cc1/C=N/N1C(=S)N(c2ccccc2)C(=Nc2ccccc2)C1=Nc1ccccc1`, the TGI with HCC-2998 colon, in the assay with SR leukemia, in the assay with M14 melanoma, in the assay on MDA-MB-231 breast, in the assay with NCI/ADR-RES ovarian and in the assay with HOP-92 NSCLC was more than 100 µM throughout. Further, the TGI with RPMI-8226 leukemia and with OVCAR-8 ovarian was more than 100 µM throughout.

For `CCOC1(COP(=O)(OCc2ccccc2)OCc2ccccc2)COC(COP(=O)(OCc2ccccc2)OCc2ccccc2)(OCC)CO1` (stereo not drawn), the TGI in the assay with HCC-2998 colon, in the assay with SR leukemia, in the assay with M14 melanoma, in the assay with HL-60(TB) leukemia, in the assay with HOP-92 NSCLC and in the assay with RPMI-8226 leukemia was more than 100 µM in each case. This compound came in with a TGI in the assay on OVCAR-8 ovarian of more than 100 µM.

Regarding `CC(=O)C1=CSC2[C@H](NC(=O)Cc3ccccc3)C(=O)N2C1C(=O)OC(c1ccccc1)c1ccccc1` (stereo partly drawn), the TGI in the assay with HCC-2998 colon, in the assay with SR leukemia, in the assay with M14 melanoma, in the assay on HL-60(TB) leukemia, with A498 renal and with HOP-92 NSCLC was more than 100 µM in each case. In addition, the TGI in the assay on RPMI-8226 leukemia and in the assay on OVCAR-8 ovarian was more than 100 µM each time.

For the compound `CCCC(=O)NC1=C(NCC)C(=O)c2ccccc2C1=O`, the TGI in the assay on HCC-2998 colon, with SR leukemia, in the assay with HL-60(TB) leukemia, in the assay on MDA-MB-231 breast, in the assay on HOP-92 NSCLC and with RPMI-8226 leukemia was more than 100 µM throughout.

Turning to `Cc1ccccc1N=Nc1ccc(N=Nc2c(O)ccc3ccccc23)c(C)c1`, the TGI in the assay on M14 melanoma, in the assay with A498 renal, in the assay on MDA-MB-231 breast, with NCI/ADR-RES ovarian, with HOP-92 NSCLC and with RPMI-8226 leukemia was more than 100 µM each time. This compound came in with a TGI with OVCAR-8 ovarian of more than 100 µM.

On to `CCO[C@]12C[C@H](OC)[C@@]3(O)CC(C1[C@H]3OCc1ccccc1)C13C4C2[C@H](OC)C1[C@](COC)(CN4CC)[C@H](O)C[C@@H]3OC` (stereo partly drawn), for which the TGI in the assay on HCC-2998 colon, in the assay with SR leukemia, in the assay with M14 melanoma, in the assay on HL-60(TB) leukemia, with RPMI-8226 leukemia and in the assay on OVCAR-8 ovarian was more than 100 µM each time.

Turning to `CN(C)c1ccc(C=C2C(=O)OC(C)(C)OC2=O)cc1Br`, the TGI in the assay with HCC-2998 colon, with SR leukemia, in the assay on M14 melanoma, in the assay on HL-60(TB) leukemia, with HOP-92 NSCLC and with RPMI-8226 leukemia was more than 100 µM throughout. This compound yielded a TGI in the assay with OVCAR-8 ovarian of more than 100 µM.

Take `CC12NN=NC1C(=O)NC2=O` (stereo not drawn): the TGI in the assay with HCC-2998 colon, in the assay with SR leukemia, with HL-60(TB) leukemia, in the assay with A498 renal, in the assay with HOP-92 NSCLC and with RPMI-8226 leukemia was more than 100 µM each time. The compound also registered a TGI in the assay with OVCAR-8 ovarian of more than 100 µM.

Take `O=C(c1ccccc1)c1ccc(COc2ccc(C(c3c(O)c4ccccc4oc3=O)c3c(O)c4ccccc4oc3=O)cc2)cc1`: the TGI with HCC-2998 colon is 33.5 µM; with SR leukemia, 63.9 µM; in the assay with MDA-MB-231 breast, more than 100 µM; in the assay on NCI/ADR-RES ovarian, 40.9 µM; with RPMI-8226 leukemia it was 38.4 µM; with OVCAR-8 ovarian, 37.2 µM.

For the compound `O=c1cc(-c2cccc(Cl)c2)[nH]c2ncccc12`, the TGI is more than 100 µM with SR leukemia; more than 100 µM with M14 melanoma; 0.152 µM in the assay on HL-60(TB) leukemia; more than 100 µM in the assay with A498 renal; more than 100 µM with NCI/ADR-RES ovarian; more than 100 µM with HOP-92 NSCLC. The same compound displayed a TGI in the assay with OVCAR-8 ovarian of more than 100 µM.

Regarding `COc1ccc(NC2Oc3cc4c(cc3C(c3cccc(OC)c3OC)C2C)OCO4)cc1` (stereo not drawn), the TGI with HCC-2998 colon was more than 100 µM; in the assay on SR leukemia, 12 µM; in the assay on M14 melanoma, more than 100 µM; in the assay with HL-60(TB) leukemia, 10.9 µM; with A498 renal, 71.1 µM; in the assay on MDA-MB-231 breast, more than 100 µM. Further, the values for the TGI in the assay with HOP-92 NSCLC, with RPMI-8226 leukemia and with OVCAR-8 ovarian were 25.1 µM, more than 100 µM and more than 100 µM, respectively.

With `CN(C)CCCNC(=O)N/N=C/c1cccc([N+](=O)[O-])c1`, the TGI in the assay with M14 melanoma and with OVCAR-8 ovarian was more than 100 µM each time.

As to `Cn1c(/C=C(\O)c2ccc(Cl)cc2)nc2ccccc21`, the TGI in the assay with HCC-2998 colon is more than 100 µM; in the assay on SR leukemia it was more than 100 µM; in the assay on M14 melanoma it was more than 100 µM; in the assay on HL-60(TB) leukemia, 77.1 µM; in the assay on RPMI-8226 leukemia, more than 100 µM; with OVCAR-8 ovarian, more than 100 µM.

For `COc1cc(OC)c(/C=C2\N=C(C)N(Nc3nnc(NN4C(=O)/C(=C/c5c(OC)cc(OC)cc5OC)N=C4C)c4ccccc34)C2=O)c(OC)c1`, the TGI in the assay on SR leukemia, in the assay with M14 melanoma, in the assay with HL-60(TB) leukemia, in the assay with A498 renal, with HOP-92 NSCLC and with RPMI-8226 leukemia was more than 100 µM each time. In addition, in the assay on OVCAR-8 ovarian, the TGI was more than 100 µM.

As to `N#CC(C#N)=Cc1ccc2c(c1)OC(Cl)O2` (stereo not drawn), the TGI in the assay with M14 melanoma is 55.7 µM; in the assay with HL-60(TB) leukemia it was 44.1 µM; in the assay on NCI/ADR-RES ovarian, more than 100 µM; with RPMI-8226 leukemia, more than 100 µM; in the assay on OVCAR-8 ovarian it was more than 100 µM.

As to `CCOC(=O)c1sc2c(c1OC(=O)c1cccs1)c(=O)n(-c1ccccc1)c(=S)n2-c1ccccc1`, the TGI is 36.5 µM with HCC-2998 colon; 33.4 µM in the assay on M14 melanoma; 48.4 µM in the assay with HL-60(TB) leukemia; 18.9 µM with A498 renal; 41.8 µM with MDA-MB-231 breast; 31.4 µM in the assay on NCI/ADR-RES ovarian. The TGI worked out at 52.7 µM in the assay on HOP-92 NSCLC, 31.3 µM with RPMI-8226 leukemia and 44.9 µM in the assay on OVCAR-8 ovarian.
